According to a melting point compilation (Tetko et al.; mined from patent text by program, amines drawn as free bases though some values may be those of a salt):
Residues, ends and D or L forms follow the SMILES beside them. *: point of attachment. Cbz = O=C(OCc1ccccc1)*

CCCCOCCOc1ccc(-c2ccc3c(c2)C=C(C(=O)Nc2ccc(S(=O)Cc4cncn4CCC)cc2)CCCN3CC(C)C)cc1 (single isomer, unassigned; (-)) gave a melting point of 120 to 122 °C.
With COc1ccc2nc(S(=O)Cc3nccc(OCC(F)(F)F)c3OC)[nH]c2c1 (stereo not drawn) the melting point was 36 to 46 °C.
For C[C@]12CC[C@]3(C)C(O)CC[C@H]3[C@@H]1CCC1=C2CC=C(O)C1 (stereo partly drawn), the melting point was 86 to 90 °C.
Work on CCOC(=O)CCc1ccc(OCCN2CCCC2=O)cc1O yielded a melting point of 112 to 115 °C.
For CCCCOC(=O)NCCc1nc(-c2ccc(-c3ccccc3)cc2)c(C)[nH]1, the melting point was 143 to 144 °C.
With Cc1noc(-c2cc(-c3ccccc3)c(=O)n3c2-c2sccc2SCC3)n1 the melting point was 183 to 185 °C.
Compound COC(=O)C(Cc1ccc(O)cc1)NC(=O)C(CO)NC(=O)C(Cc1c[nH]c2ccccc12)NC(=O)OCc1ccccc1 (stereo not drawn) (Cbz-Trp-Ser-Tyr-OMe; configuration not given here) has a melting point of 149 to 152 °C.
With CN(C)c1ccc(C(=S)Nc2ccc([N+](=O)[O-])cc2)cc1 the melting point was 210 °C.
O=C(O)CCC(=O)c1cc2c(s1)CCc1ccccc1C2=O gave a melting point of 167 to 168 °C.
In the case of CN[C@@H]1CN(c2c(F)cc3c(=O)c(C(=O)O)cn([C@@H]4C[C@@H]4F)c3c2C)C[C@@H]1C(C)C, the melting point is reported as 168 to 171 °C.
For O=C1N(c2cc(Cl)nc(Cl)c2)C(=O)C2(Cc3ccc(O)cc3)CCCN12 (stereo not drawn), the melting point was 165 °C.
Work on FC(F)(F)c1ccc2nc(C3CCN(c4ncccc4Cl)CC3)[nH]c2c1 yielded a melting point of 74 °C.
Work on COCc1ncccc1CN(CCn1cc(C)c2occc2c1=O)Cc1ccc2c(c1)NC(=O)C(C)(C)C(=O)N2CC(C)C yielded a melting point of 207 to 210 °C.
Compound CCn1ncc2c1ncc1c(Cl)nc3cc(C)nn3c12 has a melting point of 179 to 180 °C.
Cc1[nH]c2ncnc(Nc3cccc(F)c3)c2c1C gave a melting point of 245 to 255 °C.
COC(=O)C(C)Oc1ncn(-c2ccc(Cl)cc2Cl)n1 (stereo not drawn) gave a melting point of 74 to 75 °C.
For c1ccc(-c2ccc3nc(C4(c5ccc6[nH]nnc6c5)N=c5ccccc5=N4)[nH]c3c2)cc1, the melting point was > 280 °C.
Work on COC(=O)c1cc(C=O)cnc1C(=O)OC yielded a melting point of 75 to 77 °C.
In the case of C#CC(C)(C)N1CCN(C(=O)OC(C)(C)C)CC1, the melting point is reported as 106 to 107 °C.
With CCn1c(=O)c2cnn3c2n(c1=O)CC=C3c1cccc(C(F)(F)F)c1 the melting point was 161 to 163 °C.
O=C(CN1C(=O)c2ccccc2C1=O)Nc1ccccc1Cl gave a melting point of 250 °C.
Work on COc1ccc(-c2c(Cl)c(CN3C(=O)c4ccccc4C3=O)nc3sc4c(c23)CCS(=O)(=O)C4)cc1 yielded a melting point of 298 to 299 °C.
COC(=O)c1ccc(OC2=C3N=C4CCCCC4=C3C(Cc3cccc(F)c3)C=C2)o1 (stereo not drawn) gave a melting point of 86 to 88 °C.
With O=C1c2cccc(F)c2C(=O)N1CCN1CCC(c2noc3cc(F)ccc23)CC1 the melting point was 142 to 143 °C.
CCOC(=O)c1cc2cc(OCCOC)cc(NS(=O)(=O)c3cccs3)c2[nH]1 gave a melting point of 106 to 107 °C.
In the case of O=C(N1CCN(c2ccccc2)CC1)N1CC(Oc2ccc(F)cc2)C1, the melting point is reported as 124 to 125 °C.
Work on O=C(O)c1cnn(-c2ccc(Cl)cc2)c1C1CC1 yielded a melting point of 186 to 187 °C.
Work on C=C(Cn1ccnc1)c1cc(F)ccc1OCc1c(Cl)cccc1Cl yielded a melting point of 106 to 108 °C.
CC(O)c1c[nH]c(-c2ccccc2)n1 (stereo not drawn) showed a melting point of 197 to 198 °C.
With CCOC(=O)c1ncc2[nH]c3ccc(SC)cc3c2n1 the melting point was 265 to 266 °C.
Compound CCc1nc(/C=C/c2cccc(O)c2)sc1C has a melting point of 161 to 162 °C.
Compound COc1cc(-c2nc(N(C)CCN(C)C)c3c(C)c(C#N)sc3n2)cc(OC)c1OC has a melting point of 125 to 127 °C.
CCOC(=O)C(C#N)=Cc1ccc(NC(=O)CC[Si](C)(C)C)cc1 gave a melting point of 157 °C.
CCCCCCN1C(=O)C(=CC(=O)O)SC1=Nc1ccc(Cl)c(Cl)c1 showed a melting point of 156 to 157 °C.
Work on Cc1onc(-c2c(Cl)cccc2Cl)c1CN1C(=O)C2(COc3cc4c(cc32)OCO4)c2ccccc21 (stereo not drawn) yielded a melting point of 190 to 192 °C.
In the case of O=C(c1ccc(Cl)cc1)c1ccc(Cl)[nH]1, the melting point is reported as 210 to 211 °C.
CC1(C)Nc2cc(F)ccc2NC1=O showed a melting point of 148 to 149 °C.
For CC1CCCCN1C(=O)COc1nc(C(Cl)(Cl)Cl)ns1 (stereo not drawn), the melting point was 88 °C.
Compound COC1(c2ccc3c(c2)OCO3)CCC(=O)CC1 has a melting point of 84 to 85 °C.
COCc1c(C(=O)OC(C)C)ncc2[nH]c3cccc(Cc4ccccc4Cl)c3c12 showed a melting point of 187 to 189 °C.
For O=C1CCC(c2ccc(Br)cc2)CC1, the melting point was 59.4 to 61.4 °C.
CCOC(=O)c1sc(OCC)nc1-c1cccc(C(F)(F)F)c1 gave a melting point of 69 to 72 °C.
For O=Cc1ncc(C(O)C(F)(F)F)s1 (stereo not drawn), the melting point was 64 to 66 °C.
Compound N#Cc1cccn(-c2ccc(S(=O)(=O)N(CCO)CCO)cc2)c1=O has a melting point of 226 to 228 °C.
Compound COC(=O)Nc1cccc(C)c1COc1cccn2c(C)c(C)nc12 has a melting point of 176 to 177 °C.
With CCN(CC)Cc1nc(-c2ncn3c2[C@@H]2CCN2C(=O)c2ccccc2-3)no1 the melting point was 209 to 211 °C.
Compound COc1ccc2oc(N(C=O)[C@@H](Cc3ccccn3)c3ncc(-c4ccc(-n5ccnc5)cc4)n3C)cc2c1 has a melting point of 151 to 153 °C.
In the case of COc1ccc(-c2cnc3ccc(-c4nnc(SCc5cccc(C#N)c5)o4)cn23)cc1, the melting point is reported as 143 to 144 °C.
Cn1ncc(N2CCCC2)c(-c2ccccc2C=NO)c1=O gave a melting point of 239 °C.
Compound C[Si](C)(C)OC(CCl)(Cn1cncn1)c1ccc(F)cc1F (stereo not drawn) has a melting point of 59 to 61 °C.
O=C(O)Cc1ccc2c(c1)CCc1ccccc1C2=O showed a melting point of 154 °C.
With COC(=O)c1nc2cc(F)ccc2c(O)c1C(=O)OC the melting point was 228 °C.
Work on N#Cc1ccc2c(c1)S(=O)(=O)c1ccc(F)cc1C2=O yielded a melting point of 260 °C.
COc1cccc(CN2Cc3cc(OC)c(O)cc3CC2C)c1 (stereo not drawn) gave a melting point of 100 to 105 °C.
Cc1oc(-c2ccccc2)nc1COc1ccccc1CCCC1SC(=O)NC1=O (stereo not drawn) showed a melting point of 173 to 174 °C.
N#CC1(C(O)(Cn2cncn2)c2ccc(Cl)cc2)CC1 (stereo not drawn) showed a melting point of 107 °C.
In the case of CC(C)C(NC(=O)OCc1ccccc1)C(=O)Nc1nncs1 (racemic), the melting point is reported as 162 to 164 °C.
With Nc1ccc(C(CC2CCCC2)C(=O)Nc2nccs2)cc1 (stereo not drawn) the melting point was 102 to 107 °C.
Work on CC1(C)CCC(C)(C)c2c(OCc3ccc(F)cc3)cc(C(O)c3ccc4cc(C(=O)O)ccc4c3)cc21 (stereo not drawn) yielded a melting point of 212 °C.
Nc1c(C(=O)c2cccnc2N2CCOCC2)oc2ccc(Cl)cc12 gave a melting point of 95 to 97 °C.
For Clc1ccc(C(c2ccc(Cl)cc2)n2ncnn2)cc1, the melting point was 91 to 92 °C.
With CCCSc1cc(S(N)(=O)=O)c(N)cc1Cl the melting point was 109 to 111 °C.
CSCC(=O)[C@H](Cc1ccccc1)NC(=O)[C@H](CC(C)C)NC(=O)OC(C)(C)C gave a melting point of 117 to 118 °C.
COC(=NS(=O)(=O)c1nc(-c2ccccc2)ns1)C(C)C showed a melting point of 123 to 124 °C.
Compound O=C1NC(=S)SC1=Cc1ccc2c(c1)OCO2 has a melting point of 194 to 195 °C.
Work on CCOc1ccc(C2=CC(C)(C)Oc3c(OCC)cc(Cc4cnc(N)nc4N)cc32)cc1 yielded a melting point of 186 to 188 °C.
Work on CC(C)Oc1cncc(Br)c1 yielded a melting point of 144 to 146 °C.
With CCn1c([N+](=O)[O-])cnc1-c1nnc2ccc(N=CN(C)C)nn12 the melting point was 198 to 200 °C.
For O=C(O)[C@H]1C[C@H](NCc2ccccc2)c2c(Cl)cc(Cl)cc2N1 (relative stereo), the melting point was 112 to 114 °C.
With N#Cc1c(N2CCN(C(=O)c3ccco3)CC2)c2cc(Cl)cnc2n(CC(=O)c2ccccc2)c1=O the melting point was 328 °C.
CCCCCC(C)C(C)c1cc(O)c2c(c1)OC(C)(C)C1=C2CN(CC(=O)NC(=O)Nc2ccccc2)CC1 (stereo not drawn) gave a melting point of 159 to 161 °C.
COc1cc(C2CCN(C[C@@H](C)O)CC2)ccc1Nc1ncc2ccc(-c3cc(Cl)ccc3OC)n2n1 gave a melting point of 94 to 108 °C.
Compound CCOC(=O)NC(=O)C1c2ccccc2Oc2ccc(Br)cc21 (racemic) has a melting point of 203 °C.
With COC(=O)c1ccc2c(c1)OC(C)(C)C(=O)N2C(C)C the melting point was 62 to 63 °C.
CC(C)(C)c1c(C(=O)NC2C3CC4CC(C3)CC2C4)cnn1-c1ccc(C(=O)O)cc1 (stereo not drawn) showed a melting point of 309 °C.
With O=C(NC(=O)N1CCOCC1)c1cccc(-c2noc(-c3ccccc3F)n2)c1 the melting point was 190 to 194 °C.
CON=Cc1ccc2c(c1CN1CCN(C)CC1)OCO2 showed a melting point of 100 to 102 °C.
With CCCCCCC1c2cc(CBr)ccc2-c2ccc(CBr)cc21 the melting point was 143 to 145 °C.
Work on COc1ccc(Cc2ccc(Sc3ccccc3)s2)cc1 yielded a melting point of 92 to 93 °C.
Work on CC1(C)C(=O)N(c2ccnc(NC(=O)NCc3ccccn3)c2)c2ccccc21 yielded a melting point of 191 to 192 °C.
CCC(=O)C(CCCOc1ccc(OCCCC(C(=O)CC)C(=O)CC)cc1)C(=O)CC gave a melting point of 57 to 58 °C.
For CC(C)NC(=O)[C@H](C)C[C@H](O)[C@H](CC1CCCCC1)NC(=O)[C@H](Cc1cscn1)NC(=O)OC(C)(C)C, the melting point was 185 to 187 °C.
Compound CCOC(=O)C=Cc1ccc(CCNS(=O)(=O)c2ccc(Cl)cc2)cc1 has a melting point of 97 to 98 °C.
Work on CC(C)c1nn(-c2ccc(C(F)(F)F)cn2)cc1CCO yielded a melting point of 74 to 75 °C.
For O=C(C(=O)c1ccc(F)c(Br)c1)c1ccc(OCCF)cc1, the melting point was 107 °C.
Compound CCOC(=O)C(Cc1ccc(C)c(C)c1)(NC(C)=O)C(=O)OCC has a melting point of 107 to 109 °C.
For CS(=O)(=O)N(CCCl)N(C(=O)NCCCl)S(C)(=O)=O, the melting point was 96 to 97.5 °C.
Work on CCOC(=O)/C=C/c1cc(O)ccc1Br yielded a melting point of 96 to 98 °C.
COC(=O)CN(NC(N)=O)c1ccc(OC)c(C)c1 gave a melting point of 174 to 176 °C.
Compound CC(C)C(NC(=O)c1ccccc1)C(=O)O (racemic) has a melting point of 125 to 128 °C.
In the case of Cc1c(C(=O)c2ccccc2)c(NC(=O)CI)cn1C, the melting point is reported as 135 to 137 °C.
With COP(C)(=O)C(O)[C@H](CC1CCCCC1)NC(=O)[C@H](CC(C)C)NC(=O)CCc1ccccc1 (stereo partly drawn) the melting point was 165 to 170 °C.
Compound CS(=O)(=O)c1ccc(-c2cnn(-c3cccc(Cl)c3)c(=O)c2CCc2ccccc2)cc1 has a melting point of 142 to 145 °C.
Work on CN(C)CC1CCCCN1CC(=O)N1c2ccccc2NC(=O)c2c1ccn2C (stereo not drawn) yielded a melting point of 163 to 165 °C.
With N#Cc1ccc(Nc2nc(NCc3ccco3)nc(Nc3ccc(O)cc3)n2)cc1 the melting point was 62 to 65 °C.
Oc1cc2c(cc1CNc1ccccc1)OCCC2 gave a melting point of 135 to 137 °C.
C=Cc1ccc(OC)cc1C1C(C(=O)OC)=C(C)NC(C)=C1C(=O)OC gave a melting point of 141 to 143 °C.
In the case of CN1CCN(c2ccc(NC(=O)C3(C)CC3)cc2C(F)(F)F)C1=O, the melting point is reported as 90 to 91 °C.
